From patent US20150366191A1, “ANTIMICROBIAL METHOD BY BLOCKING MANNITOL METABOLISM AND ANTIMICROBIAL COMPOSITION CONTAINING MANNITOL METABOLIC INHIBITOR” (Research & Business FOUNDATION SUNGKYUNKWAN UNIVERSITY, priority 2014, published 2015)

Assays:
[1] = tested on: bacteria infected into macrophages; experiment: macrophage infection model, viability of bacteria in the presence of mannitol; format: cell-based, Staphylococcus aureus; details: compound and mannitol used together; after 18 hours of infection
Source text: In addition, to confirm an inhibitory effect in a host cell, a macrophage infection model was used.

[2] = biological target: M1PDH (Staphylococcus aureus, UniProt P99140); experiment: in vitro M1PDH enzymatic assay (NADH optical density at 340 nm); format: biochemical; details: fructose-6-phosphate and NADH, or Mtl-1-phosphate and NAD as substrates
Source text: To measure an in vitro M1PDH enzyme activity, a change in concentration of NADH according to an enzyme activity was observed through a change in optical density at 340 nm using fructose-6-phosphate and NADH, or Mtl-1-phosphate and NAD as substrates.

[3] = tested on: bacteria; experiment: viability of bacteria by optical density at 600 nm; format: cell-based; details: change in concentration of the compound; OD 600 nm
[4] = tested on: bacteria; experiment: chemical toxicity assay (growth of bacteria); format: cell-based
[5] = tested on: mannitol metabolism; experiment: mannitol metabolism inhibition, phenol red colour change in mannitol medium; format: cell-based; details: medium containing 27 mM of mannitol and phenol red
Protocol: When bacteria were cultured in a medium containing 27 mM of mannitol and phenol red, the mannitol was metabolized to produce fructose and reduce pH of the medium, thereby changing a color of the phenol red to yellow. However, since the phenol red was not changed in color to keep the medium red by inhibiting the mannitol metabolism, an inhibitor showing an mannitol metabolism inhibitory effect was found using such a principle (FIG. 11A).

Compound | SA viability in macrophages [1] | inhibition of M1PDH activity [2] | viability of bacteria [3] | inhibition of growth of bacteria [4] | mannitol metabolism inhibitory effect [5]
Cc1c(O)c(O)cc2c1CC=C1[C@@]2(C)CC[C@@]2(C)C3C[C@](C)(C(=O)O)CC[C@]3(C)CC[C@]12C (stereo partly drawn) [Compound 5, (2R,4aS,6aS,6aS,14aS,14bR)-10,11-dihydroxy-2,4a,6a,6a,9,14a-hexamethyl-3,4,5,6,8,13,14,14b-octahydro-1H-picene-2-carboxylic acid] | decrease in SA viability in a macrophage | inhibiting an activity of M1PDH | decrease in viability | – | –
Cc1nn(-c2ccccc2)c2c1C(c1ccc([N+](=O)[O-])cc1)C(C#N)=C(N)O2 (stereo not drawn) [Compound 10, 6-amino-3-methyl-4-(4-nitrophenyl)-1-phenyl-1,4-dihydropyrano[2,3-c]pyrazole-5-carbonitrile] | – | inhibited M1PDH activity | – | not inhibiting growth of bacteria | inhibiting only the mannitol metabolism
COc1nc(NC(=O)NS(=O)(=O)c2ccccc2C(F)(F)F)nc(C23CC4CC(CC(C4)C2)C3)n1 [Compound 26, 2-(1-adamantyl)-4-methoxy-6-{[({[2-(trifluoromethyl)phenyl]sulfonyl}amino)carbonyl]amino}-1,3,5-triazine] | – | inhibited M1PDH activity | – | not inhibiting growth of bacteria | inhibiting only the mannitol metabolism
Nc1c(-c2ccc3ccccc3n2)c2ccc([N+](=O)[O-])cc2c(=O)n1Cc1ccccc1 [Compound 27, 3-amino-2-benzyl-7-nitro-4-(2-quinolyl)-1,2-dihydroisoquinolin-1-one] | – | inhibited M1PDH activity | – | not inhibiting growth of bacteria | inhibiting only the mannitol metabolism
O=C(NC(=O)c1ccc(Oc2ccc(Cl)cc2)c([N+](=O)O)c1)Nc1ccccc1C(F)(F)F [Compound 31, N-[4-(4-chlorophenoxy)-3-nitrobenzoyl]-N′-[2-(trifluoromethyl)phenyl]urea] | – | inhibited M1PDH activity | – | not inhibiting growth of bacteria | inhibiting only the mannitol metabolism
